US20080132505A1 (Glaxo Group Limited, priority 2004, published 2008)
Like-named read-outs stand apart in the source and are kept apart here.

Biological target: human cannabinoid CB2 receptor (Homo sapiens, UniProt P34972)
Assay: Cannabinoid CB2 receptor agonist activity (yeast reporter assay, FDGlu fluorescence)
Type: cell-based
Conditions: for Emax: read-out: efficacy value (Emax relative to HU210) at the cloned human cannabinoid CB2 receptor
Description: Determination of Cannabinoid CB2 Receptor Agonist Activity
The cannabinoid CB2 receptor agonist activity of the compounds of formula (I)-(IV) was determined in accordance with the following experimental method.
Yeast (Saccharomyces cerevisiae) cells expressing the human cannabinoid CB2 receptor were generated by integration of an expression cassette into the ura3 chromosomal locus of yeast strain MMY23. This cassette consisted of DNA sequence encoding the human CB2 receptor flanked by the yeast GPD promoter to the 5′ end of CB2 and a yeast transcriptional terminator sequence to the 3′ end of CB2. MMY23 expresses a yeast/mammalian chimeric G-protein alpha subunit in which the C-terminal 5 amino acids of Gpa1 are replaced with the C-terminal 5 amino acids of human Gαi3 (as described in Brown et al. (2000), Yeast 16:11-22). Cells were grown at 30° C. in liquid Synthetic Complete (SC) yeast media (Guthrie and Fink (1991), Methods in Enzymology, Vol. 194) lacking uracil, tryptophan, adenine and leucine to late logarithmic phase (approximately 6 OD600/ml).
Agonists were prepared as 10 mM stocks in DMSO. […] Agonist solutions in DMSO (1% final assay volume) were transferred into black, clear bottom, microtitre plates from NUNC (96- or 384-well). Cells were suspended at a density of 0.2 OD600/ml in SC media lacking histidine, uracil, tryptophan, adenine and leucine and supplemented with 10 mM 3-aminotriazole, 0.1M sodium phosphate pH 7.0, and […] fluorescein di-β-D-glucopyranoside (FDGlu). This mixture (50 ul per well for 384-well plates, 200 ul per well for 96-well plates) was added to agonist in the assay plates (Multidrop 384, Labsystems). After incubation at 30° C. for 24 hours, fluorescence resulting from degradation of FDGlu to fluorescein due to exoglucanase, an endogenous yeast enzyme produced during agonist-stimulated cell growth, was determined using a Spectrofluor microtitre plate reader (Tecan; excitation wavelength: 485 nm; emission wavelength: 535 nm). Fluorescence was plotted against compound concentration and iteratively curve fitted using a four parameter fit to generate a concentration effect value. Efficacy (Emax) was calculated from the equation
where Max[compound X] and Min[compound X] are the fitted maximum and minimum respectively from the concentration effect curve for compound X, and Max[HU210] and Min[HU210] are the fitted maximum and minimum respectively from the concentration effect curve for (6aR,10aR)-3-(1,1′-Dimethylheptyl)-6a,7,10,10a-tetrahydro-1-hydroxy-6,6-dimethyl-6H-dibenzo[b,d]pyran-9-methanol (HU210; available from Tocris). Equieffective molar ratio (EMR) values were calculated from the equation
Where EC50 [compound X] is the EC50 of compound X and EC50 [HU210] is the EC50 of HU210.

[1] = EC50 value at the cloned human cannabinoid CB2 receptor

Chain of human cannabinoid CB2 receptor (P34972 whole entry): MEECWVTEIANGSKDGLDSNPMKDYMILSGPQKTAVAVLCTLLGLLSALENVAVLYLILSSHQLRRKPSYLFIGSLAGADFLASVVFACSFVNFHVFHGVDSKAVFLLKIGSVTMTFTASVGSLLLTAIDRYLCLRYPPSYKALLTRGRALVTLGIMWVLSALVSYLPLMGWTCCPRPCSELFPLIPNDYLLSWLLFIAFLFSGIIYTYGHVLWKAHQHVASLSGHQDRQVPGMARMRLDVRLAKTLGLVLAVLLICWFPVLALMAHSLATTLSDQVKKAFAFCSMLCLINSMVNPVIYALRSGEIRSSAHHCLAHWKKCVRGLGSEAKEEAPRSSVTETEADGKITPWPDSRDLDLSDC

Structure (SMILES) | EC50 [1] | Emax | EC50 (read-out: EC50 value at the cloned human cannabinoid CB2 receptor)
CC(C)(C)CCNC(=O)c1cnc(Nc2cccc(Cl)c2)nc1C(F)(F)F [Example 27, 2-(3-Chloro-phenylamino)-4-trifluoromethyl-pyrimidine-5-carboxylic acid (3,3-dimethyl-butyl)-amide] | 300 to 1000 nM | > 50% | 
CC(C)(C)CNC(=O)c1cnc(Nc2cccc(Cl)c2)nc1C(F)(F)F [Example 28, 2-(3-Chloro-phenylamino)-4-trifluoromethyl-pyrimidine-5-carboxylic acid (2,2-dimethyl-propyl)-amide] | 300 to 1000 nM | > 50% | 
O=C(NC1CCC1)c1cnc(Nc2cccc(F)c2)nc1C(F)(F)F [Example 29, 2-(3-Fluoro-phenylamino)-4-trifluoromethyl-pyrimidine-5-carboxylic acid cyclobutylamide] | 300 to 1000 nM | > 50% | 
O=C(NC1CCC1)c1cnc(Nc2ccc(Cl)c(Cl)c2)nc1C(F)(F)F [Example 30, 2-(3,4-Dichloro-phenylamino)-4-trifluoromethyl-pyrimidine-5-carboxylic acid cyclobutylamide] | 300 to 1000 nM | > 50% | 
O=C(NCC1CCOCC1)c1cnc(Nc2cccc(F)c2)nc1C(F)(F)F [Example 31, 2-(3-Fluorophenylamino)-4-trifluoromethylpyrimidine-5-carboxylic acid (tetrahydropyran-4-ylmethyl)amide] | 20 to 300 nM | > 50% | 
O=C(NCC1CCOCC1)c1cnc(Nc2cccc(Br)c2)nc1C(F)(F)F [Example 32, 2-(3-Bromophenylamino)-4-trifluoromethylpyrimidine-5-carboxylic acid (tetrahydropyran-4-ylmethyl)amide] | 20 to 300 nM | > 50% | 
O=C(NCC1CCOCC1)c1cnc(Nc2cccc(Cl)c2Cl)nc1C(F)(F)F [Example 33, 2-(2,3-Dichlorophenylamino)-4-trifluoromethylpyrimidine-5-carboxylic acid (tetrahydropyran-4-ylmethyl)amide] | 20 to 300 nM | > 50% | 
O=C(NCC1CCOCC1)c1cnc(Nc2cc(Cl)ccc2Cl)nc1C(F)(F)F [Example 35, 2-(2,5-Dichlorophenylamino)-4-trifluoromethylpyrimidine-5-carboxylic acid (tetrahydropyran-4-ylmethyl)-amide] | 20 to 300 nM | > 50% | 
O=C(NCC1CCOCC1)c1cnc(Nc2cc(Cl)cc(Cl)c2)nc1C(F)(F)F [Example 36, 2-(3,5-Dichlorophenylamino)-4-trifluoromethylpyrimidine-5-carboxylic acid (tetrahydropyran-4-ylmethyl)-amide] | 20 to 300 nM | > 50% | 
COc1cccc(Nc2ncc(C(=O)NCC3CCOCC3)c(C(F)(F)F)n2)c1 [Example 37, 2-(3-Methoxyphenylamino)-4-trifluoromethylpyrimidine-5-carboxylic acid (tetrahydropyran-4-ylmethyl)-amide] | 20 to 300 nM | > 50% | 
O=C(NCC1CCCC1)c1cnc(Nc2cccc(F)c2)nc1C(F)(F)F [Example 38, 2-(3-Fluorophenylamino)-4-trifluoromethylpyrimidine-5-carboxylic acid cyclopentylmethyl-amide] | 20 to 300 nM | > 50% | 
O=C(NCC1CCCC1)c1cnc(Nc2cccc(Br)c2)nc1C(F)(F)F [Example 39, 2-(3-Bromophenylamino)-4-trifluoromethylpyrimidine-5-carboxylic acid cyclopentylmethyl-amide] | 20 to 300 nM | > 50% | 
O=C(NCC1CCCC1)c1cnc(Nc2cccc(Cl)c2Cl)nc1C(F)(F)F [Example 40, 2-(2,3-Dichlorophenylamino)-4-trifluoromethylpyrimidine-5-carboxylic acid cyclopentylmethyl-amide] | 20 to 300 nM | > 50% | 
O=C(NCC1CCCC1)c1cnc(Nc2ccc(Cl)cc2Cl)nc1C(F)(F)F [Example 41, 2-(2,4-Dichlorophenylamino)-4-trifluoromethylpyrimidine-5-carboxylic acid cyclopentylmethyl-amide] | 20 to 300 nM | > 50% | 
O=C(NCC1CCCC1)c1cnc(Nc2cc(Cl)ccc2Cl)nc1C(F)(F)F [Example 42, 2-(2,5-Dichlorophenylamino)-4-trifluoromethylpyrimidine-5-carboxylic acid cyclopentylmethyl-amide] | 20 to 300 nM | > 50% | 
O=C(NCC1CCCC1)c1cnc(Nc2c(Cl)cccc2Cl)nc1C(F)(F)F [Example 43, 2-(2,6-Dichlorophenylamino)-4-trifluoromethylpyrimidine-5-carboxylic acid cyclopentylmethyl-amide] | 20 to 300 nM | > 50% | 
O=C(NCC1CCCC1)c1cnc(Nc2ccc(Cl)c(Cl)c2)nc1C(F)(F)F [Example 44, 2-(3,4-Dichlorophenylamino)-4-trifluoromethylpyrimidine-5-carboxylic acid cyclopentylmethyl-amide] | 20 to 300 nM | > 50% | 
O=C(NCC1CCCC1)c1cnc(Nc2cc(Cl)cc(Cl)c2)nc1C(F)(F)F [Example 45, 2-(3,5-Dichlorophenylamino)-4-trifluoromethylpyrimidine-5-carboxylic acid cyclopentylmethyl-amide] | 20 to 300 nM | > 50% | 
COc1cccc(Nc2ncc(C(=O)NCC3CCCC3)c(C(F)(F)F)n2)c1 [Example 46, 2-(3-Methoxyphenylamino)-4-trifluoromethylpyrimidine-5-carboxylic acid cyclopentylmethyl-amide] | 20 to 300 nM | > 50% | 
O=C(NC1CCC1)c1cnc(Nc2cccc(Br)c2)nc1C(F)(F)F [Example 47, 2-(3-Bromophenylamino)-4-trifluoromethylpyrimidine-5-carboxylic acid cyclobutylamide] |  |  | 20 to 300 nM
O=C(NC1CCC1)c1cnc(Nc2cccc(Cl)c2Cl)nc1C(F)(F)F [Example 48, 2-(2,3-Dichlorophenylamino)-4-trifluoromethylpyrimidine-5-carboxylic acid cyclobutylamide] | 20 to 300 nM | > 50% | 
O=C(NC1CCC1)c1cnc(Nc2ccc(Cl)cc2Cl)nc1C(F)(F)F [Example 49, 2-(2,4-Dichlorophenylamino)-4-trifluoromethylpyrimidine-5-carboxylic acid cyclobutylamide] | 20 to 300 nM | > 50% | 
O=C(NC1CCC1)c1cnc(Nc2cc(Cl)ccc2Cl)nc1C(F)(F)F [Example 50, 2-(2,5-Dichlorophenylamino)-4-trifluoromethylpyrimidine-5-carboxylic acid cyclobutylamide] | 20 to 300 nM | > 50% | 
O=C(NC1CCC1)c1cnc(Nc2c(Cl)cccc2Cl)nc1C(F)(F)F [Example 51, 2-(2,6-Dichlorophenylamino)-4-trifluoromethylpyrimidine-5-carboxylic acid N-cyclobutylamide] | 20 to 300 nM | > 50% | 
O=C(NC1CCC1)c1cnc(Nc2cc(Cl)cc(Cl)c2)nc1C(F)(F)F [Example 52, 2-(3,5-Dichlorophenylamino)-4-trifluoromethylpyrimidine-5-carboxylic acid cyclobutylamide] | 20 to 300 nM | > 50% | 
COc1cccc(Nc2ncc(C(=O)NC3CCC3)c(C(F)(F)F)n2)c1 [Example 53, 2-(3-Methoxyphenylamino)-4-trifluoromethylpyrimidine-5-carboxylic acid cyclobutylamide] | 20 to 300 nM | > 50% | 
